Our source for the IC50 values is PMC5078989, “Targeted inhibition of the COP9 signalosome for treatment of cancer” (Nature Communications, 2016).

Holding throughout (format): biochemical
One assay addresses T1, human MMP2 (Homo sapiens, UniProt P08253).
T1 construct: human MMP2 (Uniprot P08253), amino acids 1–660; made in house; host or cells: insect cells (baculovirus)
T1 sequence (P08253 30-660): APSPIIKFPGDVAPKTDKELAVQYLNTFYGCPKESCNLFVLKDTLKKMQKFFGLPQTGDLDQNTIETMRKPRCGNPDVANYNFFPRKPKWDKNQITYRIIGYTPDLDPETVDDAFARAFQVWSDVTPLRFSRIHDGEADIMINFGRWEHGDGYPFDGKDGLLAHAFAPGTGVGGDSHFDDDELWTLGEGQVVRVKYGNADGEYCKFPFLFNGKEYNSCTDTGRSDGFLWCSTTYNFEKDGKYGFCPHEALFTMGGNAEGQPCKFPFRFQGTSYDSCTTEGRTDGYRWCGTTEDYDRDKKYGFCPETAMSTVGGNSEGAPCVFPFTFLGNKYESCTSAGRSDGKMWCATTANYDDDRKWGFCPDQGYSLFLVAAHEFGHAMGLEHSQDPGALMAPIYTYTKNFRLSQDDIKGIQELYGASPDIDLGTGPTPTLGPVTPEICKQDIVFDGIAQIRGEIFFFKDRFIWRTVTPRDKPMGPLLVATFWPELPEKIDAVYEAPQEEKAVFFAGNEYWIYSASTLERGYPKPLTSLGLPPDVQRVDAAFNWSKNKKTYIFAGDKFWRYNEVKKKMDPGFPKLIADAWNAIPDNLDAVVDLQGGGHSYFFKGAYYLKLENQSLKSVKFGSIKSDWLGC
The experiment in a line: Selectivity assay MMP2. As for the experimental part:
(§1) All biochemical assays were performed at room temperature in 384-well plates in a total volume of 25.25 μl per well. Test compounds were dissolved in 90% (v/v) DMSO/water. For the assays, 250 nl of compound solution was added per well, followed by addition of 12.5 μl protease solution. After 70 min of pre-incubation at room temperature, the reactions were started by addition of 12.5 μl substrate solution and followed either by measuring fluorescence intensity (rhodamine 110-based substrates) or by fluorescence lifetime (PT14-based substrates). The effect of compound on enzymatic activity was obtained from the linear part of the progress curves and determined after 1 h (t=60 min). The final compound concentrations ranged from 100 μM to 1 nM.
(§2) Matrix metalloproteinases. Human MMP1 (Uniprot P03956), amino acids 1–469, expressed in and purified from stable transfected C127 cells; human MMP2 (Uniprot P08253), amino acids 1–660, expressed in and purified from insect cells (baculovirus expression system); human MMP8 (Uniprot P22894), amino acids 100–262, expressed in and purified from E. coli; human MMP9 (Uniprot P14780), amino acids 1–707, expressed in and purified from stable transfected 293 cells; human MMP12 (Uniprot P39900), amino acids 101–268, expressed in and purified from E. coli; human MMP13 (Uniprot P45452), amino acids 103–274, expressed in and purified from E. coli; human MMP14 (Uniprot P50281), amino acids 112–284, expressed in and purified from E. coli; human ADAM17 (Uniprot P78536), amino acids 1–670, expressed in and purified from insect cells (baculovirus expression system); substrate: Ac-C(PT14)-[…]-NH2 purchased from Biosyntan (product number 8069); enzyme concentrations: 3 nM (MMP1), 1 nM (MMP2), 3 nM (MMP8), 0.1 nM (MMP9), 0.5 nM (MMP12), 0.13 nM (MMP13), 0.005 nM (MMP14), 30 nM (ADAM17); substrate concentration: 0.8 μM; assay buffer: 100 mM Tris, pH 7.4, 100 mM NaCl, 10 mM CaCl2, 10 μM ZnCl2, 0.075% (v/v) Brij35.

The target of another assay is T2, human MMP8 (Homo sapiens, UniProt P22894).
T2 construct: human MMP8 (Uniprot P22894), amino acids 100–262; made in house; host or cells: E. coli
T2 sequence (P22894 100-262): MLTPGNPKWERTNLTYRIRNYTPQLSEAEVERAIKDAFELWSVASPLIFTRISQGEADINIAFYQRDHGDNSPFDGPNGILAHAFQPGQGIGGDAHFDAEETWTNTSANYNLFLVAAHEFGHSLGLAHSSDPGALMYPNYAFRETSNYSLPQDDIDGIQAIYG
As to the kind of experiment: Selectivity assay MMP8. As to the method:
as §1, §2

The next assay addresses T3, human MMP9 (Homo sapiens, UniProt P14780).
T3 construct: human MMP9 (Uniprot P14780), amino acids 1–707; made in house; host or cells: stably transfected 293 cells
As to the kind of experiment: Selectivity assay MMP9. As for the experimental part: as §1, §2

The target of another assay is T4, human MMP12 (Homo sapiens, UniProt P39900).
T4 construct: human MMP12 (Uniprot P39900), amino acids 101–268; made in house; host or cells: E. coli
T4 sequence (P39900 101-268): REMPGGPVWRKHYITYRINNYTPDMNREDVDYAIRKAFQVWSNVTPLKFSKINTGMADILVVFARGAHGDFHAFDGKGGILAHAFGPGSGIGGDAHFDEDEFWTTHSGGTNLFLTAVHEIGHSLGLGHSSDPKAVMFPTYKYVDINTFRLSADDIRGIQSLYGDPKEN
As to the kind of experiment: Selectivity assay MMP12. As for the experimental part:
as §1, §2

The target in the next assay is T5, human MMP13 (Homo sapiens, UniProt P45452).
T5 construct: human MMP13 (Uniprot P45452), amino acids 103–274; made in house; host or cells: E. coli
The experiment in a line: Selectivity assay MMP13. As to the method: as §1, §2

Another assay addresses T6, human MMP14 (Homo sapiens, UniProt P50281).
T6 construct: human MMP14 (Uniprot P50281), amino acids 112–284; made in house; host or cells: E. coli
The experiment in a line: Selectivity assay MMP14. As for the experimental part: as §1, §2

Another assay deals with T7, human ADAM17 (Homo sapiens, UniProt P78536).
T7 construct: human ADAM17 (Uniprot P78536), amino acids 1–670; made in house; host or cells: insect cells (baculovirus)
T7 sequence (P78536 18-670): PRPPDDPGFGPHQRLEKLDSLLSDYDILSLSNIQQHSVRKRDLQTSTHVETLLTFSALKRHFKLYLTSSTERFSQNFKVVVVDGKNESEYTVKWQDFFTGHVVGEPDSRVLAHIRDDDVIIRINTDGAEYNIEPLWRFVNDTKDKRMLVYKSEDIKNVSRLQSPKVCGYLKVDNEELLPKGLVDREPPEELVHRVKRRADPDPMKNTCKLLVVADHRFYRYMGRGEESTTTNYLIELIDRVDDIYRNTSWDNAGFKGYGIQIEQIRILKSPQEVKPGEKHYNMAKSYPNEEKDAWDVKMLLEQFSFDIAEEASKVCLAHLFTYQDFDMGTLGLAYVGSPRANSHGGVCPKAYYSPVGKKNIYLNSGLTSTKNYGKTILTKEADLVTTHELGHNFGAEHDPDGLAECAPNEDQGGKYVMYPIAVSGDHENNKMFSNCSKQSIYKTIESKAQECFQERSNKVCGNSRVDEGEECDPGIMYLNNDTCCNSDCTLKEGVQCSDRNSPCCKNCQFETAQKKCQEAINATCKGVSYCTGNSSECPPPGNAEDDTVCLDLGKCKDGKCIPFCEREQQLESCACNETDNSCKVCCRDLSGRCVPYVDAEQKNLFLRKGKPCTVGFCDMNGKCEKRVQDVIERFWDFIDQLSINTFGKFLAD
As to the kind of experiment: Selectivity assay ADAM17. As for the experimental part: as §1, §2

T3 sequence (P14780 20-707): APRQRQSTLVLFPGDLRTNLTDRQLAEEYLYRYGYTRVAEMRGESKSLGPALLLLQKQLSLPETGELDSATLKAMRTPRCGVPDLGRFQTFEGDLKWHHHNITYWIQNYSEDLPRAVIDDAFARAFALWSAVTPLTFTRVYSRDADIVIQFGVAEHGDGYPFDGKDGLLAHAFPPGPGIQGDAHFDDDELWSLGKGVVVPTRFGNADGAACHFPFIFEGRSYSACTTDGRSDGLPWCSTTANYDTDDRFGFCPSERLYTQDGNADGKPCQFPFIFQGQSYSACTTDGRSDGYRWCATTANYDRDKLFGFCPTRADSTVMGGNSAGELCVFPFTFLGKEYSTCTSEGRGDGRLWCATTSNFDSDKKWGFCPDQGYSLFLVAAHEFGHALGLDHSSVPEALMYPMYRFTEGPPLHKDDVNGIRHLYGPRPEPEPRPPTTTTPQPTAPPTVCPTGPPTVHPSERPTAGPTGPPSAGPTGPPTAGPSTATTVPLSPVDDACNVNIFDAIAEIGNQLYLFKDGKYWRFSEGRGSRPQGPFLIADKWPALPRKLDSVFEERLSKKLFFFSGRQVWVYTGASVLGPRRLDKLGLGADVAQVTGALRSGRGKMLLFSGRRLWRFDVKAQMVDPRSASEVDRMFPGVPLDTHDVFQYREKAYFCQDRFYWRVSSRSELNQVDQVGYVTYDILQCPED

As usually defined, the IC50 is the concentration that gives 50% inhibition. A low value points to greater potency in that assay. Take `COCc1ccccc1NCc1ccc([C@H]2[C@@H](O)CCCc3cncn32)c(-c2ccccc2Cl)c1` [CSN5i-2, (5S,6S)-5-(2′-chloro-5-(((2-(methoxymethyl)phenyl)amino)methyl)-[1,1′-biphenyl]-2-yl)-6,7,8,9-tetrahydro-5H-imidazo[1,5-a]azepin-6-ol]: the IC50 against human MMP2 was 89 ± 3 µM; against human MMP8, 59 ± 8 µM; against human MMP9, 3.8 ± 0.4 µM; against human MMP12, above 100 µM; on human MMP13, above 100 µM; on human MMP14, 15.4 ± 0.02 µM. The molecule further returned an IC50 against human ADAM17 above 100 µM.

`COCc1ccccc1NCc1ccc([C@@H]2[C@H](O)CCCc3cncn32)c(-c2ccccc2Cl)c1` [CSN5i-2e, (5R,6R)-5-(2′-chloro-5-(((2-(methoxymethyl)phenyl)amino)methyl)-[1,1′-biphenyl]-2-yl)-6,7,8,9-tetrahydro-5H-imidazo[1,5-a]azepin-6-ol]: the IC50 at human MMP2 is at least 90 µM; on human MMP8, 48 ± 8 µM; against human MMP9, 3.2 ± 0.2 µM; on human MMP12, above 100 µM; against human MMP13, above 100 µM; on human MMP14, 11 ± 1 µM. On human ADAM17, this molecule displayed an IC50 above 100 µM.

On to `CC(C)n1nc(C(F)F)cc1C(=O)Nc1ccc([C@H]2[C@@H](O)CCCc3cncn32)c(-c2ccccc2)c1` [CSN5i-3, 3-(Difluoromethyl)-N-(6-((5S,6S)-6-hydroxy-6,7,8,9-tetrahydro-5H-imidazo[1,5-a]azepin-5-yl)-[1,1′-biphenyl]-3-yl)-1-isopropyl-1H-pyrazole-5-carboxamide], for which the IC50 against human MMP2 was above 100 µM; against human MMP8, 14 ± 0.1 µM; at human MMP9 it was 7.4 ± 2 µM; on human MMP12 it was above 100 µM; on human MMP13, above 100 µM; at human MMP14, 4.6 ± 0.5 µM. The same molecule returned a concentration for half-maximal inhibition (IC50) at human ADAM17 above 100 µM.
